Key:
[1] = test system: Blood; assay: Inhibition of IL1-beta release in human whole blood; type: functional, tissue-based
[2] = test system: Blood; assay: Inhibition of TNFalpha release in human whole blood; type: functional, tissue-based
[3] = Inhibition of p38 MAPK
[4] = target: Glycogen synthase kinase-3 beta (Homo sapiens) (UniProt P49841); assay: Inhibition of human GSK3-beta at 10 uM
[5] = target: T1, CYP1A2 (Homo sapiens, UniProt P05177); assay: Inhibition of CYP1A2 at 10 uM; type: ADME
T1 sequence (P05177 whole entry): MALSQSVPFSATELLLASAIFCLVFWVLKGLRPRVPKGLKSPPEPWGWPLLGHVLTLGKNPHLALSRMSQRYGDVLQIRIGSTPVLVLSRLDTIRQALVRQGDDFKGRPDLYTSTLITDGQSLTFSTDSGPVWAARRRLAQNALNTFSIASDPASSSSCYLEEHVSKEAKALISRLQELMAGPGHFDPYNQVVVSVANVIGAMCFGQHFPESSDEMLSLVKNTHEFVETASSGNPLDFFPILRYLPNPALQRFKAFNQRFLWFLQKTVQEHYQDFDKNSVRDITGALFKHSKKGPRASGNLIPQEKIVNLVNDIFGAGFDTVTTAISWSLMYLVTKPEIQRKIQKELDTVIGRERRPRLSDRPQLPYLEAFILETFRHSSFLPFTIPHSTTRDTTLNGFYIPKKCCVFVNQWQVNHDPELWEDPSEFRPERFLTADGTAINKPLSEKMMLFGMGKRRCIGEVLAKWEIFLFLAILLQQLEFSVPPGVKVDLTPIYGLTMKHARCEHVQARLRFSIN

[6] = organism: Homo sapiens; assay: Inhibition of human JNK1-alpha-1/SAPK1c at 10 uM
[7] = target: Tyrosine-protein kinase Lck (Homo sapiens) (UniProt P06239); assay: Inhibition of human LCK at 10 uM
[8] = target: Dual specificity mitogen-activated protein kinase kinase 1 (Homo sapiens) (UniProt Q02750); assay: Inhibition of human MEK1 at 10 uM
[9] = target: Mitogen-activated protein kinase 9 (Homo sapiens) (UniProt P45984); assay: Inhibition of human JNK2alpha2 at 10 uM
[10] = target: T2, Mitogen-activated protein kinase 14 (Homo sapiens, UniProt Q16539); details: at 10 µM
Description: Inhibition of human SAPK2a/p38-alpha at 10 uM

[11] = target: CYP2D6 (Homo sapiens, UniProt P10635); assay: Inhibition of CYP2D6 at 10 uM; type: ADME
[12] = organism: Homo sapiens; assay: Inhibition of human CAMK2 at 10 uM
[13] = target: Mitogen-activated protein kinase 3 (Homo sapiens) (UniProt P27361); assay: Inhibition of human ERK1 at 10 uM
[14] = target: Mitogen-activated protein kinase 10 (Homo sapiens) (UniProt P53779); assay: Inhibition of human JNK3 at 10 uM
[15] = target: Mitogen-activated protein kinase 1 (Homo sapiens) (UniProt P28482); assay: Inhibition of human MAPK2/ERK2 at 10 uM
[16] = target: CYP2C9 (Homo sapiens, UniProt P11712); assay: Inhibition of CYP2C9 at 10 uM; type: ADME
[17] = target: T2, Mitogen-activated protein kinase 14; assay: Inhibition of p38alpha
[18] = target: Protein kinase C alpha type (Homo sapiens) (UniProt P17252); assay: Inhibition of human PKCalpha at 10 uM
[19] = organism: Homo sapiens; assay: Inhibition of human PKA at 10 uM
[20] = target: RAC-alpha serine/threonine-protein kinase (Homo sapiens) (UniProt P31749); assay: Inhibition of human PKBalpha at 10 uM
[21] = target: Rho-associated protein kinase 2 (Homo sapiens) (UniProt O75116); assay: Inhibition of human ROCK2 at 10 uM
[22] = target: RAF proto-oncogene serine/threonine-protein kinase (Homo sapiens) (UniProt P04049); assay: Inhibition of human c-RAF at 10 uM
[23] = target: CYP2C19 (Homo sapiens, UniProt P33261); assay: Inhibition of CYP2C19 at 10 uM; type: ADME
[24] = target: CYP3A4 (Homo sapiens, UniProt P08684); assay: Inhibition of CYP3A4 at 10 uM; type: ADME

Sequence of Rho-associated protein kinase 2 (Homo sapiens) (O75116 whole entry, looked up): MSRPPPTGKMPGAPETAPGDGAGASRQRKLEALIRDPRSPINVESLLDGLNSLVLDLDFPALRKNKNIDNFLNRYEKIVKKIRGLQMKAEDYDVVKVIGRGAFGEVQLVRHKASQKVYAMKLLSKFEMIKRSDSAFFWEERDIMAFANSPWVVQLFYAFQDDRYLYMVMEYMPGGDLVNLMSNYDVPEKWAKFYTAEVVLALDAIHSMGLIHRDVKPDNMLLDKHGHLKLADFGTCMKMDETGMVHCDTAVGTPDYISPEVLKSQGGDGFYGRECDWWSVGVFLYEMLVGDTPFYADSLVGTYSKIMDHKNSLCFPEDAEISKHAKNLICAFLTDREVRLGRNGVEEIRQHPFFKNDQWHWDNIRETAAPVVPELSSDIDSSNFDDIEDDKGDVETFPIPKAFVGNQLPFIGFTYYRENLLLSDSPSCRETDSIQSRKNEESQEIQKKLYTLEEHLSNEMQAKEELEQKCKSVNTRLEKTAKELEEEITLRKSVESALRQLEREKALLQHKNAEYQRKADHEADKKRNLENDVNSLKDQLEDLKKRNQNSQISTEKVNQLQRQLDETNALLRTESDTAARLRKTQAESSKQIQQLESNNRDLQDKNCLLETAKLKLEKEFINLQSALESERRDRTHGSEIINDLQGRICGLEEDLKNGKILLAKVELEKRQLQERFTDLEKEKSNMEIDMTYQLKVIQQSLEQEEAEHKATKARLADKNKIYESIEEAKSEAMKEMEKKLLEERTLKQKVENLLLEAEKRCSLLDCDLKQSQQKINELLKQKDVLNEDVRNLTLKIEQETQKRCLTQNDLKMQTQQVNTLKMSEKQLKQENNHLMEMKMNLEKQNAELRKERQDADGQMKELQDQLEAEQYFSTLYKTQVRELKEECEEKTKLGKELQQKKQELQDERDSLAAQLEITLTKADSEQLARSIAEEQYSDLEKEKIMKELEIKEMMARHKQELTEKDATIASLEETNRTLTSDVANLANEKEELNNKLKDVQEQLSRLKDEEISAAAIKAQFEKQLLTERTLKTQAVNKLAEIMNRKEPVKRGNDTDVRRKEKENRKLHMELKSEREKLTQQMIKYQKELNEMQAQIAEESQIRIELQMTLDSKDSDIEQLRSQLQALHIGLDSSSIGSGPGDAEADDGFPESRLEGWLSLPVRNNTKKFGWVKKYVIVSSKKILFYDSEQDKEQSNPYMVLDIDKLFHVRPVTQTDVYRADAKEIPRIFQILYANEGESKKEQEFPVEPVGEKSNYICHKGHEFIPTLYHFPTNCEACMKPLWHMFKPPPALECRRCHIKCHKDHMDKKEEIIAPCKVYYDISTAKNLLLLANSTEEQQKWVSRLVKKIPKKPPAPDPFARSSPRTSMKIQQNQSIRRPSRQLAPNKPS
Sequence of CYP2D6 (P10635 whole entry): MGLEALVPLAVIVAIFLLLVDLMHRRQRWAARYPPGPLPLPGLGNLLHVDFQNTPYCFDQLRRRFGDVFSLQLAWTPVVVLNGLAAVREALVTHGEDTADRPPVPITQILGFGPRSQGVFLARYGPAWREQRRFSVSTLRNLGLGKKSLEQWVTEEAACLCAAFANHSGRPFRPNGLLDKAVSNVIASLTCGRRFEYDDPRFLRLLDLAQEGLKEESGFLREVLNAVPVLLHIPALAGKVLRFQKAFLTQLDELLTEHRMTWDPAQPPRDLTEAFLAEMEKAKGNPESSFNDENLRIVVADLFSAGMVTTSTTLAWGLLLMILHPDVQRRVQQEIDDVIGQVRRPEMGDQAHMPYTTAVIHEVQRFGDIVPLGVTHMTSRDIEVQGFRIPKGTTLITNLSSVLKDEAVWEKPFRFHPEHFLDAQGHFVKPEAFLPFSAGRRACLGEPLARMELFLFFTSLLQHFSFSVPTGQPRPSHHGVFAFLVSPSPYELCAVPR
Sequence of CYP2C19 (P33261 whole entry): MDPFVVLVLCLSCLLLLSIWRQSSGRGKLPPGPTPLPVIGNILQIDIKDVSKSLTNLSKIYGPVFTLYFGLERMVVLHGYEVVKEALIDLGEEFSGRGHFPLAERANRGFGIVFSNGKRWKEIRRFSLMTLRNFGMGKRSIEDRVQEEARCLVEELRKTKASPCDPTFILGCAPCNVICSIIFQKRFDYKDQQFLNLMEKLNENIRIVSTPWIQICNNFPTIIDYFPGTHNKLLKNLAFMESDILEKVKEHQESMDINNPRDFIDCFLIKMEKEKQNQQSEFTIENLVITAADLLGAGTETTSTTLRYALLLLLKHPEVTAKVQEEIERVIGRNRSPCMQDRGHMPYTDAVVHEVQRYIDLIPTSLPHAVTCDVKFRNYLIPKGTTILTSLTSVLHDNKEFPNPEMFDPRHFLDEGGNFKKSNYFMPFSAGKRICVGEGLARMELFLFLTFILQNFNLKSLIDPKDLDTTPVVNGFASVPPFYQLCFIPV
Sequence of Glycogen synthase kinase-3 beta (Homo sapiens) (P49841 whole entry, looked up): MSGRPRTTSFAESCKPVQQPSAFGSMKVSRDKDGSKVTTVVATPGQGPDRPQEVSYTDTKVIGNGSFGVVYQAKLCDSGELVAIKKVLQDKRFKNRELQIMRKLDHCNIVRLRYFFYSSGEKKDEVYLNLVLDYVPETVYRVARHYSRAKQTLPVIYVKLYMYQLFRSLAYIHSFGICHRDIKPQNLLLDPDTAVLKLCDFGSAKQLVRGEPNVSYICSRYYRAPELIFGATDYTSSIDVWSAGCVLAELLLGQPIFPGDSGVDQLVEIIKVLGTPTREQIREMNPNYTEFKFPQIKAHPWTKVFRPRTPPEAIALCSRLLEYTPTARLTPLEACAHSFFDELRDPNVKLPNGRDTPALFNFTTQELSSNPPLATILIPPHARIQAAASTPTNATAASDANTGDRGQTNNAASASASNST
T2 sequence (Q16539 whole entry): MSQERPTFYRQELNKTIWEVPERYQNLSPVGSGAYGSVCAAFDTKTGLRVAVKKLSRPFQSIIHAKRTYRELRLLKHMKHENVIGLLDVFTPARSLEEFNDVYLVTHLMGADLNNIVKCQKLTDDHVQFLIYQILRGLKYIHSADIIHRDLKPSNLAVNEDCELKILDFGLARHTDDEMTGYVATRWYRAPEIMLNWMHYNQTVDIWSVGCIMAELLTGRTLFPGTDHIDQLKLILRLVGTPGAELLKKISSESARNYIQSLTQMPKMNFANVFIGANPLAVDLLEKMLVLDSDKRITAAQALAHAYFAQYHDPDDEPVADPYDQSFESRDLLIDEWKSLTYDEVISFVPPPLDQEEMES
Sequence of RAF proto-oncogene serine/threonine-protein kinase (Homo sapiens) (P04049 whole entry): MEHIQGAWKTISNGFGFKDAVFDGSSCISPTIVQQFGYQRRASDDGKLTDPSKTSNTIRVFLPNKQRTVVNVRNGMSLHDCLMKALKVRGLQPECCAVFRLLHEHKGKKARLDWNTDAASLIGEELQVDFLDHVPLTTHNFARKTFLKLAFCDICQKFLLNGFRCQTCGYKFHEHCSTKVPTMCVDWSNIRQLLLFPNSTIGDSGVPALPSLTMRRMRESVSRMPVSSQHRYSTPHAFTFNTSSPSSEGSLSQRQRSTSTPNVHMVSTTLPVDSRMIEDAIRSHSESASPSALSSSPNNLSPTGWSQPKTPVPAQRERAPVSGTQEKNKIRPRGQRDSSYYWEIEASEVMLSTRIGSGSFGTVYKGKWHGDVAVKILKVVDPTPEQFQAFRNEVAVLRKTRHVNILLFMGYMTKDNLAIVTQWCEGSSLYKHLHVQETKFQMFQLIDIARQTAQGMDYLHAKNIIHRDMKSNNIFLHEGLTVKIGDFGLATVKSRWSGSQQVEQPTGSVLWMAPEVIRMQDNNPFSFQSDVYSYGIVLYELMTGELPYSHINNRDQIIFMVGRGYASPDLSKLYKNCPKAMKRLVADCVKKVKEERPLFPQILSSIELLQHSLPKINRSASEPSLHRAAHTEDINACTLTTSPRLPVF
Sequence of Tyrosine-protein kinase Lck (Homo sapiens) (P06239 2-509 limits assumed): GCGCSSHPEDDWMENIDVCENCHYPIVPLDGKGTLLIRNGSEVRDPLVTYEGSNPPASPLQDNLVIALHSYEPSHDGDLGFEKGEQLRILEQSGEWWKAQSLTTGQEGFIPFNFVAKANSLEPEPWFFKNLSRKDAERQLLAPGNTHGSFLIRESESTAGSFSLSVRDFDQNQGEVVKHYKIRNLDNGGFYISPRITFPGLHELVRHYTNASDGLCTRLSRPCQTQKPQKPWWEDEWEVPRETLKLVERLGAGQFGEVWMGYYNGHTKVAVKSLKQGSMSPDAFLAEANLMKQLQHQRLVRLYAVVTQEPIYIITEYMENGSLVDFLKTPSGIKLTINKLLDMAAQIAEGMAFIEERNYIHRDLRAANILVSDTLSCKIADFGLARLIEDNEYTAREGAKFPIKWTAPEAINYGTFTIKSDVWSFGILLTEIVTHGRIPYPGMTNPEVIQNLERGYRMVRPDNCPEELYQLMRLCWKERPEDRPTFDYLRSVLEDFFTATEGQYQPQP

## CSc1nc(-c2ccc(F)cc2)c(-c2ccnc(NC(C)c3ccccc3)c2)[nH]1 (stereo not drawn)
[1]
  IC50: 4330 nM
[2]
  IC50: 4330 nM
[3]
  IC50: 380 nM

## CSc1nc(-c2ccc(F)cc2)c(-c2ccncc2)[nH]1
[1]
  IC50: 44 nM
[2]
  IC50: 8650 nM
[3]
  IC50: 630 nM

## FC(F)(F)c1cccc(-c2nc(-c3ccccc3)[nH]c2-c2ccncc2)c1
[3]
  IC50: 86 nM

## Clc1ccc(-c2nc(-c3ccccc3)[nH]c2-c2ccncc2)cc1
[3]
  IC50: 48 nM

## CSc1nc(-c2ccc(F)cc2)c(-c2ccnc(NCCc3cccs3)c2)[nH]1
[4]
  inhibition: 1%
[5]
  inhibition at 10 µM: 83%
[6]
  inhibition: 72%
[7]
  inhibition: 28%
[8]
  inhibition: 1%
[9]
  inhibition: 90%
[1]
  IC50: 23500 nM
[10]
  inhibition: 99%
[11]
  inhibition at 10 µM: 88%
[12]
  inhibition: 0%
[13]
  inhibition: 46%
[14]
  inhibition: 99%
[15]
  inhibition: 31%
[16]
  inhibition at 10 µM: 93%
[17]
  IC50: 23 nM
[2]
  IC50: 14500 nM
[18]
  inhibition: 0%
[19]
  inhibition: 4%
[20]
  inhibition: 1%
[21]
  inhibition: 0%
[22]
  inhibition: 53%
[23]
  inhibition at 10 µM: 94%
[24]
  inhibition at 10 µM: 89%

## CSc1nc(-c2ccc(F)cc2)c(-c2ccnc(NC(C)CCc3ccccc3)c2)[nH]1 (stereo not drawn)
[4]
  inhibition: 0%
[5]
  inhibition at 10 µM: 38%
[6]
  inhibition: 88%
[7]
  inhibition: 30%
[8]
  inhibition: 3%
[9]
  inhibition: 94%
[1]
  IC50: 2370 nM
[10]
  inhibition: 97%
[11]
  inhibition at 10 µM: 78%
[12]
  inhibition: 0%
[13]
  inhibition: 32%
[14]
  inhibition: 99%
[15]
  inhibition: 17%
[16]
  inhibition at 10 µM: 88%
[17]
  IC50: 13 nM
[2]
  IC50: 350 nM
[18]
  inhibition: 0%
[19]
  inhibition: 0%
[20]
  inhibition: 5%
[21]
  inhibition: 0%
[22]
  inhibition: 19%
[23]
  inhibition at 10 µM: 89%
[24]
  inhibition at 10 µM: 95%

## CSc1nc(-c2ccc(F)cc2)c(-c2ccnc(NC(C)CCCC(C)C)c2)[nH]1 (stereo not drawn)
[4]
  inhibition: 0%
[5]
  inhibition at 10 µM: 23%
[6]
  inhibition: 86%
[7]
  inhibition: 47%
[8]
  inhibition: 2%
[9]
  inhibition: 91%
[1]
  IC50: 7560 nM
[10]
  inhibition: 94%
[11]
  inhibition at 10 µM: 66%
[12]
  inhibition: 0%
[13]
  inhibition: 28%
[14]
  inhibition: 99%
[15]
  inhibition: 6%
[16]
  inhibition at 10 µM: 76%
[17]
  IC50: 20 nM
[2]
  IC50: 3990 nM
[18]
  inhibition: 0%
[19]
  inhibition: 0%
[20]
  inhibition: 6%
[21]
  inhibition: 0%
[22]
  inhibition: 7%
[23]
  inhibition at 10 µM: 84%
[24]
  inhibition at 10 µM: 71%

## C[S+]([O-])c1ccc(CSc2nc(-c3ccc(F)cc3)c(-c3ccncc3)[nH]2)cc1 (stereo not drawn)
[1]
  IC50: 380 nM
[2]
  IC50: 1100 nM
[3]
  IC50: 4 nM

## CSc1nc(-c2ccc(F)cc2)c(-c2ccnc(NC(C)c3ccccc3)c2)n1C (stereo not drawn)
[1]
  IC50: 4100 nM
[2]
  IC50: 3000 nM
[3]
  IC50: 220 nM
